In US20110046378A1, “Novel Imaging Agents for Detecting Neurological Dysfunction” (SIEMENS MEDICAL SOLUTIONS USA, INC., priority 2008, published 2011):
Read-outs that look alike come from different tables or passages of the source.

What was measured:
[1] = biological target: Aβ(1-42) Oligomers/Polymers (Homo sapiens, UniProt P05067); assay: Biacore (SPR) screening on immobilized Aβ42 oligomers/soluble polymers; type: binding; set-up: Binding to oligomers/polymers (Aβ1-42): key to the marks not given beside the values; details: for BINDING LEVELS TO Aβ(1-42) Oligomers/Polymers: screening compounds at 10 uM
Aβ(1-42) Fibrils = Aβ(1-42) Fibrils (Homo sapiens, UniProt P05067); assay: Biacore (SPR) screening on immobilized Aβ42 fibrils; type: binding; details: for BINDING LEVELS TO Aβ(1-42) Fibrils: screening compounds at 10 uM;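 for BINDING LEVELS TO Aβ(1-42) Fibrils: minus means no binding and more plus signs mean higher affinity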
[2] = biological target: T1, Amyloid (AD patient's brain slice) (Homo sapiens, UniProt P05067); assay: IC50 determination with [18F]-PiB by ex vivo competition assay using autoradiography staining; type: binding
T1 construct: The brain slices were 20 um thick
Excerpt: (§1) Ex Vivo Competition Assay Using Amyloid (AD patient's brain slice) Autoradiography Staining

[3] = system: Amyloid (AD brain slices); assay: [18F]-CB001 competition studies on AD brain slices; type: binding, human; details: cold competitor, increasing concentrations
[4] = system: Amyloid (AD patient's brain slice); assay: Amyloid autoradiography staining of AD patient's brain slices, grey/white matter binding with wash protocols; set-up: species or system human
Method: as §1
A study was conducted to examine the grey to white matter binding ratios for 4 different tracers: CB-001, CB-003, FDDNP and F-PiB (FIG. 7 and FIG. 8). […] After the human brain slices from AD patients were incubated with a given tracer for 30 min, the slices were washed with various EtOH:water solutions in an attempt to optimize the grey-to white matter ratios (FIG. 9). The results were surprising and unexpected in view of previous work performed by other researchers. CB-001 has a slightly higher c Log P than FDDNP (3.8 vs 3.4) and would be expected to have poorer washout than FDDNP based on these values. […] More specifically, the white matter binding of FDDNP is several shades darker than CB-001's white matter binding, indicating low non-specific binding of CB-001.

Aβ monomer = details: read-out: Binding Affinity IC50; cited from earlier work
[5] = determination 7, vs [18F]-PiB, read-out: IC50 7
[6] = mean of determinations, vs [18F]-PiB, read-out: Average IC50

T1 sequence (P05067 672-711 limits assumed): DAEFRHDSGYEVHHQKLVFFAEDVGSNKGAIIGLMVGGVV
Aβ(1-42) Oligomers/Polymers, sequence (P05067 672-713 limits assumed): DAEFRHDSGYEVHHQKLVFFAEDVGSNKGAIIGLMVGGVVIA
Aβ(1-42) Fibrils, sequence (P05067 672-713 limits assumed): as above

Structure (SMILES) | BINDING LEVELS TO Aβ(1-42) Oligomers/Polymers [1] | BINDING LEVELS TO Aβ(1-42) Fibrils (Aβ(1-42) Fibrils) | also measured
Cc1oc2cc(O)ccc2c(=O)c1-c1nncn1-c1ccccc1 | ++ | + | 
O=CNc1ccc2c(c1)[nH]c1cc(OCCF)ccc12 [CB-012, N-(7-(2-fluoroethoxy)-9H-carbazol-2-yl)formamide] |  |  | IC50 ([2]; determination 4, vs [18F]-PiB, read-out: IC50 4): 610 nM; IC50 ([2]; determination 5, vs [18F]-PiB, read-out: IC50 5): 300 nM; IC50 ([2]; determination 6, vs [18F]-PiB, read-out: IC50 6): 450 nM; IC50 [2, 5]: 390 nM; IC50 [2, 6]: 438 nM
CC(=C(C#N)C#N)c1ccc2cc(N(C)CCF)ccc2c1 [FDDNP, reference compound] |  |  | blocking of [18F]-CB001 staining [3]: much less capable of blocking [18F]-CB001 staining; Grey/white matter binding ratio using mild wash conditions ([4]; 30 min incubation, PBS, 30%/40%/20% EtOH:water, PBS, 20 um AD brain slices): Poor; Grey/white matter binding ratio using harsh FDDNP wash conditions ([4]; 30 min incubation, PBS, 70%/90%/70% EtOH:water, PBS, 20 um AD brain slices): Fair; order of (non-specific) white matter binding ([4]; AD brain slices): FDDNP>CB001>[18F]-PiB>CB003
O=CNc1ccc2c(c1)[nH]c1cc(OCCOCCF)ccc12 [CB-024, N-(7-(2-(2-fluoroethoxy)ethoxy)-9H-carbazol-2-yl)formamide] |  |  | IC50 [2, 5]: 540 nM; IC50 [2, 6]: 540 nM
Nc1ccc2[nH]c(C(F)(F)F)nc2c1 | ++ | + | 
Fc1cc(F)cc(-c2cn(-c3cc(Cl)ccc3Cl)nn2)c1 | + | − | 
O=S(=O)(O)c1cccc2cccc(Nc3ccccc3)c12 [ANS] |  |  | IC50 (Aβ monomer): > 100000 nM
Nc1c(/N=N/c2ccc(-c3ccc(/N=N/c4cc(S(=O)(=O)O)c5ccccc5c4N)cc3)cc2)cc(S(=O)(=O)O)c2ccccc12 [Congo Red] |  |  | IC50 (Aβ monomer): 2000 to 10000 nM
[11CH3]Nc1ccc(-c2nc3ccc(O)cc3s2)cc1 [PiB, reference compound] |  |  | blocking of [18F]-CB001 staining [3]: blocks [18F]-CB001 staining with increasing concentrations
O=c1c(O)c(-c2cccc(O)c2)oc2ccc(O)cc12 | ++++ | ++ | 
Cc1nccc2c1[nH]c1cc(O)ccc12 [drawing 134] |  |  | Binding to oligomers/polymers (Aβ1-42) ([1]; carbazole-based hits): ++; Binding to fibrils (Aβ1-42) (Aβ(1-42) Fibrils; carbazole-based hits): +
C[S+]([O-])c1ccc(-c2nc(-c3ccc(F)cc3)c(-c3ccncc3)[nH]2)cc1 (stereo not drawn) | ++ | + | 
Fc1ccc(-c2nc(-c3ccccc3)c(-c3ccccc3)[nH]2)cc1 |  | − | 

Now from value to compound, other results behind:

BINDING LEVELS TO Aβ(1-42) Oligomers/Polymers [1] | BINDING LEVELS TO Aβ(1-42) Fibrils (Aβ(1-42) Fibrils) | Structure (SMILES) | also measured
+ | + | Fc1ccc(-c2cn(-c3cccc(C(F)(F)F)c3)nn2)c(F)c1 | 
+ | − | Oc1cnc(Cl)c2ccccc12 | 
+++ | ++ | O=c1c(O)c(-c2ccccc2)oc2ccc(O)cc12 | 
+ | + | Cc1ccc(O)c(-c2ccno2)c1 | 
+ | + | Cc1c(-c2ccccc2)oc2cc(O)ccc2c1=O | 
+ | − | Cc1c(-c2ccccc2)c(=O)oc2cc(O)ccc12 | 
+ | + | CCOc1ccc2c(=O)c(Oc3ccccc3)c(C)oc2c1 | 
+ | − | Fc1ccc(-c2cn(-c3ccc(Cl)c(Cl)c3)nn2)c(F)c1 | 
+++ | + | COc1ccc2oc(-c3ccc(OC)c(OC)c3)c(OC)c(=O)c2c1 | 
++ | ++ | Oc1ccc(-c2nc(-c3ccncc3)c(-c3ccc(F)cc3)[nH]2)cc1 | 
+ | − | COc1cccc(-c2oc3cc(OC)ccc3c(=O)c2OC)c1 | 
++ | + | O=c1cc(-c2ccccc2)oc2ccc(O)cc12 | 
